Measured values taken from patent US9719191B2, “Methods for identifying ligands that target nucleic acid molecules and nucleic acid structural motifs” (The Research Foundation for The State University of New York, priority 2006, dated 2017).
Like-named read-outs stand apart in the source and are kept apart here. One block for each molecule: values may come before it.

What was measured:
IL 34 = experiment: Competitive binding assay against 21-FL; settings: competition with 10 nM 21-FL, 75 nM IL 34
Experimental: (§1) To determine if selected loops have aminoglycoside preferences, the binding of five aminoglycosides, 21, kanamycin A, kanamycin B, tobramycin, and neamine (FIG. 7) to the pool of RNAs from spot 2+ (FIG. 10C) was probed using a competitive binding assay. […] We also tested a single RNA sequence identified to bind 21, IL 34, in the same manner.
(§2) A solution containing 75 nM IL 34 was refolded in 1× hybridization buffer+40 μg/mL BSA at 60° C. for 5 min. After slow cooling on the benchtop, 21-FL was added to a final concentration of 10 nM. The competing, unlabeled aminoglycoside was then added, and the resulting solution was serially diluted into 1× hybridization buffer+40 μg/mL BSA+10 nM 21-FL containing 75 nM IL 34. The solutions were equilibrated for 30 min at RT, and the fluorescence intensities were measured on a Bio-Tek HT fluorescence plate reader.

[1] = biological target: pool of RNAs from spot 2+; experiment: Competitive binding assay against 21-FL; settings: for Kd: competition with 10 nM 21-FL
Experimental: as §1, §2

[2] = biological target: 1×1 CC internal loop derived from the untranslated region in thymidylate synthase mRNA; settings: 1 mM MgCl2 and CaCl2, 150 mM NaCl, 5 mM KCl, 20 mM HEPES (pH 7.5); read-out: dissociation constant; cited from earlier work
[3] = system: oligonucleotide mimic of the bacterial rRNA A-site; settings: 6′ NH2 acetylated; cited from earlier work
IL 7 = settings: RNase A and S1 nuclease, compound 0, 0.1, 1, 10, 100 μM
Experimental: (§3) The binding site of 2 was determined by enzymatic probing of IL 7 and R4 in the presence or absence of 2 with RNase A and S1 nuclease.
(§4) The binding site(s) of 2 was determined using a nuclease protection assay. For RNase A mapping experiments, radiolabeled oligonucleotide was annealed as described above. After slow cooling, serially diluted concentrations of 2 were added, and the resulting solution was allowed to equilibrate for 30 min at RT. Approximately 6 μunits of RNase A were added, and the reaction was allowed to proceed for 10 min. The reaction was quenched by addition of an equal volume of stop buffer, and the products were separated on a denaturing 17% polyacrylamide gel.
(§5) For S1 nuclease mapping experiments, the radiolabeled oligonucleotide was annealed as described except the buffer used was 50 mM sodium acetate (pH 4.5), 280 mM NaCl, and 4.5 mM ZnSO4. The solution was allowed to equilibrate for 30 min at RT after the addition of serially diluted concentrations of 2, and then 10 units of S1 were added. The reaction was quenched after 10 min at RT, and the products were separated on a denaturing 17% polyacrylamide gel.

hairpin cassette R4 = settings: RNase A and S1 nuclease, compound 0, 0.1, 1, 10, 100 μM
Experimental: as §3, §4, §5

IL 16 = settings: in presence of 2
Experimental: as §3

IL 1 = settings: in presence of 2
Experimental: as §3

[4] = biological target: pool of RNAs harvested from position 1+; experiment: Fluorescence-based direct binding assay with 21-FL; settings: higher ligand loading position 1+
[5] = biological target: pool of RNAs harvested from position 2+; experiment: Fluorescence-based direct binding assay with 21-FL; settings: lower ligand loading position 2+
[6] = biological target: RNA internal loop library 22; experiment: Fluorescence-based direct binding assay with 21-FL; settings: entire library
[7] = biological target: chase oligonucleotide 23 (stem mimic duplex); experiment: Fluorescence-based direct binding assay with 21-FL; settings: no change in fluorescence intensity up to 5 μM
[8] = biological target: chase oligonucleotide 24 (GAAA hairpin mimic); experiment: Fluorescence-based direct binding assay with 21-FL; settings: no change in fluorescence intensity up to 5 μM
[9] = biological target: DNA chase oligonucleotides 25+26; experiment: Fluorescence-based direct binding assay with 21-FL; settings: no change in fluorescence intensity up to 5 μM
empty cassette RNA 27 = experiment: Fluorescence-based direct binding assay with 21-FL
tRNAphe = experiment: Fluorescence-based direct binding assay with 21-FL
[10] = system: RNA internal loop library 22; settings: chase oligonucleotides 23-26 in excess
[11] = system: immobilized 6′-N-5-hexynoate kanamycin A (2) / radiolabeled IL 7; experiment: Array-based competitive binding assay: competitor RNA against trace 32P-labeled IL 7 on immobilized 2; settings: for IC50: read-out: IC50 (concentration of competitor that inhibited 50% of the binding of radioactively labeled IL 7), competitor RNA, immobilized 2 in microwells, 30 min at RT
Source text: Typically microarray experiments can be used to probe the binding of a variety of small molecules to a single or a few analytes at once. In order to increase the number of conditions that can be probed on a single array, we affixed a silicon gasket that created 50 microwells on the surface of each chip (FIG. 5A). These microwells converted the array into a miniaturized 50-well plate that is easily functionalized to display kanamycin. Compound 2 was immobilized in each microwell at a constant concentration. Binding experiments were completed by delivering 10 μL of a solution containing serially diluted concentrations of the internal loop of interest and trace 5′end ^32P labeled IL 7 into each microwell. Dose response curves were constructed and fit to determine the concentration of competitor that inhibited 50% of the binding of the radioactively labeled RNA (FIG. 3, FIG. 5B, and FIG. 5C). FIG. 5B is a representative autoradiogram for binding selected RNAs relative to binding of control oligonucleotides R2, R3, D1 and D2, and R4, the cassette without an internal loop.
In order to determine which concentration of 2 was optimal for competitive binding assays, serially diluted 2 was applied to the chip surface and allowed to react for 2 h at RT inside the microwell of a silicon gasket (GRACE Biolabs, CWCS 50R-1.0, C-24780) (FIG. 5A). Each of the wells was washed twice with water, and the slide was dried in air. The 5′ end ^32P radiolabeled IL 7 was annealed in 1×HB+40 μg/mL of BSA at 60° C. for 5 min and allowed to slow cool on the benchtop for 10 min. It is important to note that the hybridization buffer contains 1 mM EDTA, or 50 equivalents compared to the amount of Cu^2+ used for the click reaction. […] The annealed RNA oligonucleotide was hybridized with the chip surface for 30 min at RT. […]
IC50's were determined by incubating serially diluted competitor RNA and trace radiolabeled IL 7 in microwells formed using a silicon gasket. […] The data were quantified using Bio-Rad's QuantityOne software, and the IC50's were determined using SigmaPlot's four-parameter logistical curve fit.

[12] = system: RNA 3×3 internal loop library (R1); experiment: Resin-based selection of RNA internal loops with immobilized kanamycin A; format: binding; settings: based on initial radioactivity eluted with kanamycin A; about 150 members
Experimental: Selections were completed by incubating a solution that contained 5′ end ^32P-labeled R1 in buffer with resin-immobilized kanamycin A. In addition to R1, a variety of other oligonucleotides were added to the incubation solution (R2-R4, D1, D2). […] The small number may be due to the manner in which the ligand was immobilized onto the resin (impairs the 6′ amino group from forming stabilizing contacts with RNA).
Each of the oligonucleotides was refolded separately in Hybridization Buffer (“HB”) containing 8 mM […] pH 7.0, 1 mM EDTA, and 185 mM NaCl by heating for 5 min at 65° C. and then cooling to RT on the benchtop. Oligonucleotides were then transferred to 4° C. and mixed together. Before the oligonucleotides were hybridized with the resin, 200 μg of BSA was added to the samples. Each selection experiment was completed with 10 picomoles of 5′-end labeled R1 and 20-fold higher concentration of each control oligonucleotide (R2-R4, D1, D2) over the concentration of R1.
A 100 μL aliquot of resin slurry (10 μL of resin) was placed into a 2.5 mL BioRad column and washed 3× with 1 mL of 4° C. HB. […] At this stage, liquid scintillation counting was used to ensure that only background radioactivity was being eluted from the column. […]

[13] = listed as 6′ hexynoate kanamycin A

Kd (IL 34): much weaker
Kd [1]: 85 nM
fold weaker binding ([1]; relative to 21, kanamycin A and kanamycin B): approximately 9 fold
Molecule: NC[C@H]1O[C@H](O[C@H]2[C@H](O)[C@@H](O[C@H]3O[C@H](CO)[C@@H](O)[C@H](N)[C@H]3O)[C@H](N)C[C@@H]2N)[C@H](N)C[C@@H]1O [tobramycin]
Kd [2]: 870 nM

Molecule: CC(=O)NCC1OC(OC2C(N)CC(N)C(OC3OC(CO)C(O)C(N)C3O)C2O)C(O)C(O)C1O (stereo not drawn) [6′ acetylated kanamycin A]
reduction in binding relative to the parent aminoglycoside [3]: several orders of magnitude

Molecule: NC[C@H]1O[C@H](O[C@H]2[C@H](O)[C@@H](O)[C@H](N)C[C@@H]2N)[C@H](N)[C@@H](O)[C@@H]1O [neamine]
Kd (IL 34): much weaker
Kd [1]: > 500 nM

Kd [4]: 65 nM
Kd [5]: 11 nM
Kd [6]: 280 nM
Kd [7]: > 5000 nM
Kd [8]: > 5000 nM
Kd [9]: > 5000 nM
Kd (empty cassette RNA 27): 1300 nM
Kd (tRNAphe): 700 nM
Kd (IL 34; read-out: Kd): 7 nM
Kd [1]: 12 nM
binding of library members on the array [10]: concentration-dependent binding
Molecule: C#CCCCC(=O)NC[C@@H]1O[C@@H](O[C@H]2[C@H](O)[C@@H](O[C@@H]3O[C@@H](CO)[C@H](O)[C@@H](N)[C@@H]3O)[C@H](N)C[C@@H]2N)[C@@H](O)[C@H](O)[C@H]1O [Compound 21, 6′-N-5-hexynoate kanamycin A]
nucleotides protected from cleavage (IL 7; listed as 2): only nucleotides in the loop and the surrounding base pairs in IL 7 are protected from cleavage
nucleotides protected from cleavage (IL 7; [13]): occurs only in the randomized regions
nucleotides protected from cleavage (hairpin cassette R4; listed as 2): No nucleotides in the cassette R4 are protected
nucleotides protected from cleavage (hairpin cassette R4; [13]): no nucleotides are protected from modification
DEPC modification of loop nucleotides (IL 16): decreased modification
DEPC modification of loop nucleotides (IL 1): decreased modification

Molecule: IL 17: selected RNA internal loop (SEQ ID NO:14 series; SEQ ID NO:28), U replaced with C and closing pair GC (GGGAGAGGGUUUAAUCUUUACGAAAGUACCGAUUGGAUCCGCAAGG; listed as RNA, chemistry not given here)
fold weaker binding relative to IL 1 and IL 2 [11]: ~10 fold

Molecule: IL 1: selected RNA internal loop (SEQ ID NO:12), 5′UU/3′UC 2×2 loop closed by A-U pairs (GGGAGAGGGUUUAAUUUUUACGAAAGUAACUAUUGGAUCCGCAAGG; listed as RNA, chemistry not given here)
IC50 [11]: 2.2 nM

Kd (IL 34; read-out: Kd): 5 nM
Kd [1]: 9 nM
Molecule: NC[C@H]1O[C@H](O[C@H]2[C@H](O)[C@@H](O[C@H]3O[C@H](CO)[C@@H](O)[C@H](N)[C@H]3O)[C@H](N)C[C@@H]2N)[C@H](O)[C@@H](O)[C@@H]1O [kanamycin A]
percentage of the 4096-member library bound to immobilized ligand [12]: ~4%

Molecule: IL 2: selected RNA internal loop (SEQ ID NO:13), 5′UU/3′UC 2×2 loop, one closing A-U pair in different orientation (GGGAGAGGGUUUAAUAUCUACGAAAGUAUUUAUUGGAUCCGCAAGG; listed as RNA, chemistry not given here)
IC50 [11]: 3.3 nM

Molecule: NC[C@H]1O[C@H](O[C@H]2[C@H](O)[C@@H](O[C@H]3O[C@H](CO)[C@@H](O)[C@H](N)[C@H]3O)[C@H](N)C[C@@H]2N)[C@H](N)[C@@H](O)[C@@H]1O [kanamycin B]
Kd (IL 34; read-out: Kd): 5 nM
Kd [1]: 12 nM
Kd [2]: 1100 nM
